Consider 14 compounds from ChEMBL document CHEMBL1153734, “Protoxylocarpins F-H, protolimonoids from seed kernels of Xylocarpus granatum” (J Nat Prod, 2009).

Format in all cases: functional, cell-based
Experiment [1] concerns BT-474. The experiment in a line: Cytotoxicity against human BT474 cells after 3 days by MTT assay. (Formazan colour is commonly taken as a measure of viable cells.)
In experiment [2] the test system is HepG2. The experiment in a line: Cytotoxicity against human HepG2 cells after 3 days by MTT assay. The settings on record: for IC50: HepG2, 72 h.
Experiment [3] deals with SW-620. The experiment is described as follows: Cytotoxicity against human SW620 cells after 3 days by MTT assay.
The test system of experiment [4] is ChaGo. The experiment in a line: (§1) Cytotoxicity against human ChaGo cells after 3 days by MTT assay.
For experiment [5], the system named is KATO III cell. The experiment is described as follows: Cytotoxicity against human KATO III cells after 3 days by MTT assay.
Experiment [6] can be described thus: as §1. The settings on record: 72 h.

The IC50 is the concentration needed to halve the response being measured. A high value points to lower potency.

SMILES strings stand for the structures. Active and inactive are the calls of the source. The calls are words filed in the database; no cut-off is given here.

As for `COC(=O)[C@H](OC(C)=O)[C@H]1[C@]2(C)C[C@]3(O)[C@H]([C@H]2OC(C)=O)[C@H]2O[C@@]4(C)O[C@@]5(CC[C@@]6(C)[C@H](c7ccoc7)OC(=O)C[C@@]6(O)[C@@]25O4)[C@]13C`, the outcome in experiment [1], in experiment [2], in experiment [3], in experiment [4] and in experiment [5] was inactive.

`CC(=O)O[C@@H]1C[C@H]2C(C)(C)C(=O)C=C[C@]2(C)[C@H]2CC[C@]3(C)C(=CC[C@H]3[C@H]3CO[C@@H](C4(O)OC4(C)C)C3)[C@@]21C` (stereo not given in full): the outcome in experiment [1], in experiment [2], in experiment [3], in experiment [4] and in experiment [5] was inactive.

For the compound `CC(=O)O[C@@H]1C[C@H]2C(C)(C)C(=O)C=C[C@]2(C)[C@H]2CC[C@]3(C)C(=CC[C@H]3[C@H]3CO[C@@H]([C@H](O)C(C)(C)O)C3)[C@@]21C`, the result in experiment [1], in experiment [2], in experiment [3], in experiment [4] and in experiment [5] was inactive.

Regarding `CC(=O)O[C@@H]1C[C@H]2C(C)(C)C(=O)C=C[C@]2(C)[C@H]2CC[C@]3(C)C(=CC[C@H]3[C@H]3CO[C@@H]([C@@H](O)C(C)(C)O)C3)[C@@]21C`, the result in experiment [1], in experiment [2], in experiment [3], in experiment [4] and in experiment [5] was inactive.

The compound `CC1(C)C(=O)C=C[C@]2(C)[C@H]3CC[C@@]4(C)[C@H](c5ccoc5)OC(=O)[C@H]5O[C@]54[C@]3(C)C(=O)C[C@@H]12` [DEACETOXY-7-OXOGEDUNIN] yielded an IC50 in experiment [2] of 16.2 µM.

On to `COC(=O)C[C@H]1C(C)(C)C(=O)[C@@H]2CC3=C4CC(=O)O[C@@H](c5ccoc5)[C@]4(C)CC[C@@H]3[C@@]1(C)C2=O`, for which the result in experiment [1], in experiment [2], in experiment [3], in experiment [4] and in experiment [5] was inactive.

Regarding `COC(=O)[C@H](OC(C)=O)[C@H]1[C@]2(C)C[C@]3(O)[C@@](OC(C)=O)([C@H]4O[C@@]5(C)O[C@@]6(CC[C@@]7(C)[C@H](c8ccoc8)OC(=O)C[C@@]7(O)[C@@]46O5)[C@]13C)[C@H]2OC(C)=O`, the result in experiment [1], in experiment [2], in experiment [3], in experiment [4] and in experiment [5] was inactive.

For the compound `C=C1[C@@H]2CC[C@@]3(C)[C@H](c4ccoc4)OC(=O)C[C@]13O[C@H]1CC(=O)C(C)(C)[C@H](CC(=O)OC)[C@]12C`, the result in experiment [1], in experiment [2], in experiment [3], in experiment [4] and in experiment [5] was inactive.

Take `CC(=O)OC1OC(C2OC2(C)C)C[C@@H]1[C@H]1CC=C2C3(C)C(O)CC4C(C)(C)C(=O)CC[C@]4(C)[C@H]3CC[C@@]21C` (stereo not given in full): the outcome in experiment [1], in experiment [2], in experiment [3], in experiment [4] and in experiment [5] was inactive.

Turning to `COC(=O)C[C@H]1C(C)(C)[C@H](O)[C@@H]2CC3=C4CC(=O)O[C@@H](c5ccoc5)[C@]4(C)CC[C@@H]3[C@@]1(C)C2=O`, the result in experiment [1], in experiment [2], in experiment [3], in experiment [4] and in experiment [5] was inactive.

As for `COC(=O)C[C@H]1C(C)(C)[C@@H]2O[C@@]34C[C@@H]2C(=O)[C@]1(C)[C@H]3CC[C@@]1(C)[C@@H](c2ccoc2)OC(=O)C[C@]14O`, the outcome in experiment [1], in experiment [2], in experiment [3], in experiment [4] and in experiment [5] was inactive.

Consider `CC(=O)O[C@@H]1C[C@H]2C(C)(C)C(=O)C=C[C@]2(C)[C@H]2CC[C@]3(C)C(=CC[C@H]3[C@@H]3COC(=O)C3)[C@@]21C`, for which the result in experiment [1], in experiment [2], in experiment [3], in experiment [4] and in experiment [5] was inactive.

Regarding `CC1(C)C(=O)C=C[C@]2(C)[C@H]3CC[C@@]4(C)[C@H](c5ccoc5)OC(=O)[C@H]5O[C@]54[C@]3(C)[C@H](O)C[C@@H]12` [DEACETYLGEDUNIN], the result in experiment [1], in experiment [3] and in experiment [5] was inactive. Further, the IC50 in experiment [2] was determined as 10.3 µM; in experiment [6], 16 µM.

`COC(=O)CC[C@@H]1[C@@H](C)C(=O)C([C@@H](OC(C)=O)[C@@]2(O)C(=O)CC[C@]3(C)C2=CC(=O)O[C@H]3c2ccoc2)=CC1(C)C` [XYLOGRANATIN C]: the result in experiment [1], in experiment [3] and in experiment [5] was inactive. In experiment [6], this compound returned an IC50 of 9.16 µM.
